Reference: ChEMBL document CHEMBL1137297, “Synthesis and pharmacological evaluation of novel octahydro-1H-pyrido[1,2-a]pyrazine as mu-opioid receptor antagonists” (J Med Chem, 2006)

biological target: T1, Delta-type opioid receptor (Homo sapiens, UniProt P41143); test: Antagonist activity assessed as inhibition of BW373U86-stimulated [35S]GTP-gamma-S binding to human delta opioid receptor expressed in CHO cells; type: functional, cell-based
T1 sequence (P41143 whole entry): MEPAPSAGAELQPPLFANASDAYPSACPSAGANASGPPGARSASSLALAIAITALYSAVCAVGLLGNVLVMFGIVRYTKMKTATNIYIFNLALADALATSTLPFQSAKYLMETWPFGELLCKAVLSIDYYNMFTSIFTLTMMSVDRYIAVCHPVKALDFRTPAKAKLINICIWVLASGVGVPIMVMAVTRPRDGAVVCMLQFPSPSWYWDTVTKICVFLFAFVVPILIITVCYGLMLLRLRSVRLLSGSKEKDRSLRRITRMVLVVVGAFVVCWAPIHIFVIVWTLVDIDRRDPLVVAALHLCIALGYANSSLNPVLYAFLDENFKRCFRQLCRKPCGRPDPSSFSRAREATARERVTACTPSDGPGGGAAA

Row | SMILES | IC50 [nM]
1 | C[C@H]1CN2CCN(CCc3ccccc3)C[C@H]2C[C@@]1(C)c1cccc(O)c1 | 310
2 | C[C@H]1CN2CCN(Cc3ccccc3Cl)C[C@H]2C[C@@]1(C)c1cccc(O)c1 | 190
3 | Cc1ccccc1CN1CCN2C[C@H](C)[C@](C)(c3cccc(O)c3)C[C@@H]2C1 | 62

biological target: T2, Mu-type opioid receptor (Homo sapiens, UniProt P35372); test: Antagonist activity assessed as inhibition of loperamide-stimulated [35S]GTPgammaS binding to human mu opioid receptor expressed in CHO cells; type: functional, cell-based
T2 sequence (P35372 whole entry): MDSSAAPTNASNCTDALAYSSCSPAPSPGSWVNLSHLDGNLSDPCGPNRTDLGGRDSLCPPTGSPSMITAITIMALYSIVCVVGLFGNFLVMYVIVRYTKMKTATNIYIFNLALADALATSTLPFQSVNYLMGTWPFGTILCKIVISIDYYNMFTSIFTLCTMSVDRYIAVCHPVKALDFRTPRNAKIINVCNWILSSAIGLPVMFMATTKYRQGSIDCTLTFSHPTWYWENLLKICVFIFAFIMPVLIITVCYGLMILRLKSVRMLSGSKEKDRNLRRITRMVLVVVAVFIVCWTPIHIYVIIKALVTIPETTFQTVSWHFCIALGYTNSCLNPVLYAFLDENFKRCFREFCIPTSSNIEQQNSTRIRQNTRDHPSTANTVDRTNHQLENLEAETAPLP

Row | SMILES | IC50 [nM]
4 | C[C@H]1CN2CCCN(Cc3ccccc3)C[C@H]2C[C@@]1(C)c1cccc(O)c1 | 15
5 | C[C@H]1CN2CCN(Cc3ccc(O)cc3)C[C@H]2C[C@@]1(C)c1cccc(O)c1 | 5.7
6 | C[C@H]1CN2CCN(Cc3ccoc3)C[C@H]2C[C@@]1(C)c1cccc(O)c1 | 6.1
7 | C[C@H]1CN2CCN(C(=O)CCc3ccccc3)C[C@H]2C[C@@]1(C)c1cccc(O)c1 | 78
8 | C[C@H]1CN2CCN(Cc3ccsc3)C[C@H]2C[C@@]1(C)c1cccc(O)c1 | 1.4
9 | C[C@H]1CN2CCN(Cc3ccco3)C[C@H]2C[C@@]1(C)c1cccc(O)c1 | 7.2
10 | C[C@H]1CN2CCN(Cc3cccc(O)c3)C[C@H]2C[C@@]1(C)c1cccc(O)c1 | 4.5
11 | C[C@H]1CN2CCN(C(=O)Nc3ccccc3)C[C@H]2C[C@@]1(C)c1cccc(O)c1 | 16
12 | C[C@H]1CN2C[C@@H](Cc3ccccc3)NC[C@H]2C[C@@]1(C)c1cccc(O)c1 | 22
13 | C[C@H]1CN2C[C@@H](c3ccccc3)NC[C@H]2C[C@@]1(C)c1cccc(O)c1 | 52
14 | C[C@H]1CN2CCN(Cc3ccccn3)C[C@H]2C[C@@]1(C)c1cccc(O)c1 | 13
15 | Cc1cccc(CN2CCN3C[C@H](C)[C@](C)(c4cccc(O)c4)C[C@@H]3C2)c1 | 1.5
16 | C[C@H]1CN2CCN(S(=O)(=O)c3ccccc3)C[C@H]2C[C@@]1(C)c1cccc(O)c1 | 140
17 | C[C@H]1CN2CCN(CCCc3ccccc3)C[C@H]2C[C@@]1(C)c1cccc(O)c1 | 13
18 | C[C@H]1CN2CCN(Cc3ccncc3)C[C@H]2C[C@@]1(C)c1cccc(O)c1 | 18
19 | C[C@H]1CN2CCN(Cc3ccc(Cl)cc3)C[C@H]2C[C@@]1(C)c1cccc(O)c1 | 42
20 | C[C@H]1CN2CCN(Cc3cccc(Cl)c3)C[C@H]2C[C@@]1(C)c1cccc(O)c1 | 1.8
21 | C[C@H]1CN2CCN(Cc3cccnc3)C[C@H]2C[C@@]1(C)c1cccc(O)c1 | 7.5
22 | C[C@H]1CN2C[C@H](c3ccccc3)N(Cc3ccccc3)C[C@H]2C[C@@]1(C)c1cccc(C(N)=O)c1 | 28
23 | C[C@H]1CN2CCN(c3ccccc3)C[C@H]2C[C@@]1(C)c1cccc(O)c1 | 54
24 | C[C@H]1CN2CCN(C(=O)Cc3ccccc3)C[C@H]2C[C@@]1(C)c1cccc(O)c1 | 6.7
25 | C[C@H]1CN2CCN(CCc3ccccc3)C[C@H]2C[C@@]1(C)c1cccc(O)c1 | 2
26 | C[C@H]1CN2CCN(Cc3ccccc3Cl)C[C@H]2C[C@@]1(C)c1cccc(O)c1 | 1.8
27 | Cc1ccccc1CN1CCN2C[C@H](C)[C@](C)(c3cccc(O)c3)C[C@@H]2C1 | 1.8
28 | Cc1ccc(CN2CCN3C[C@H](C)[C@](C)(c4cccc(O)c4)C[C@@H]3C2)cc1 | 9.5

biological target: T3, Kappa-type opioid receptor (Homo sapiens, UniProt P41145); test: Antagonist activity assessed as inhibition of U50488-stimulated [35S]GTP-gamma-S binding to human kappa opioid receptor expressed in CHO cells; type: functional, cell-based
T3 sequence (P41145 whole entry): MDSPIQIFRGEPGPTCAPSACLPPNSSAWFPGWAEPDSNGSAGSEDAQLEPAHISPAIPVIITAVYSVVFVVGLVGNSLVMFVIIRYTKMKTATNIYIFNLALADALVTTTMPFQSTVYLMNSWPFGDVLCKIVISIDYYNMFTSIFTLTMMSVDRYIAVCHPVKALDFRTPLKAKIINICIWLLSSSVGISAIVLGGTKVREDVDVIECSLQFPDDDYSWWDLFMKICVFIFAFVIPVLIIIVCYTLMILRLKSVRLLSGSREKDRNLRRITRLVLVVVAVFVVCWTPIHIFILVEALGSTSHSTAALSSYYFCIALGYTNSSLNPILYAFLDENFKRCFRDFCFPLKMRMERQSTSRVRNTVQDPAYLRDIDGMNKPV

Row | SMILES | IC50 [nM]
29 | C[C@H]1CN2CCN(CCc3ccccc3)C[C@H]2C[C@@]1(C)c1cccc(O)c1 | 20
30 | C[C@H]1CN2CCN(Cc3ccccc3Cl)C[C@H]2C[C@@]1(C)c1cccc(O)c1 | 10
31 | Cc1ccccc1CN1CCN2C[C@H](C)[C@](C)(c3cccc(O)c3)C[C@@H]2C1 | 15

biological target: T2, Mu-type opioid receptor; test: Displacement of [3H]diprenorphine from human cloned mu opioid receptor expressed in CHO cells; type: cell-based

Row | SMILES | Ki [nM]
32 | C[C@H]1CN2CCCN(Cc3ccccc3)C[C@H]2C[C@@]1(C)c1cccc(O)c1 | 160
33 | C[C@H]1CN2CCN(Cc3ccc(O)cc3)C[C@H]2C[C@@]1(C)c1cccc(O)c1 | 10
34 | C[C@H]1CN2CCN(Cc3ccoc3)C[C@H]2C[C@@]1(C)c1cccc(O)c1 | 12
35 | C[C@H]1CN2CCN(C(=O)CCc3ccccc3)C[C@H]2C[C@@]1(C)c1cccc(O)c1 | 160
36 | C[C@H]1CN2CCN(Cc3ccsc3)C[C@H]2C[C@@]1(C)c1cccc(O)c1 | 3
37 | C[C@H]1CN2CCN(Cc3ccco3)C[C@H]2C[C@@]1(C)c1cccc(O)c1 | 7.4
38 | C[C@H]1CN2CCN(Cc3cccc(O)c3)C[C@H]2C[C@@]1(C)c1cccc(O)c1 | 4.3
39 | C[C@H]1CN2CCN(C(=O)Nc3ccccc3)C[C@H]2C[C@@]1(C)c1cccc(O)c1 | 31
40 | C[C@H]1CN2C[C@@H](Cc3ccccc3)NC[C@H]2C[C@@]1(C)c1cccc(O)c1 | 25
41 | C[C@H]1CN2C[C@@H](c3ccccc3)NC[C@H]2C[C@@]1(C)c1cccc(O)c1 | 180
42 | C[C@H]1CN2CCN(Cc3ccccn3)C[C@H]2C[C@@]1(C)c1cccc(O)c1 | 20
43 | Cc1cccc(CN2CCN3C[C@H](C)[C@](C)(c4cccc(O)c4)C[C@@H]3C2)c1 | 1.3
44 | C[C@H]1CN2CCN(S(=O)(=O)c3ccccc3)C[C@H]2C[C@@]1(C)c1cccc(O)c1 | 210
45 | C[C@H]1CN2CCN(CCCc3ccccc3)C[C@H]2C[C@@]1(C)c1cccc(O)c1 | 36
46 | C[C@H]1CN2CCN(Cc3ccncc3)C[C@H]2C[C@@]1(C)c1cccc(O)c1 | 15
47 | C[C@H]1CN2CCN(Cc3ccc(Cl)cc3)C[C@H]2C[C@@]1(C)c1cccc(O)c1 | 17
48 | C[C@H]1CN2CCN(Cc3cccc(Cl)c3)C[C@H]2C[C@@]1(C)c1cccc(O)c1 | 1.5
49 | C[C@H]1CN2CCN(Cc3cccnc3)C[C@H]2C[C@@]1(C)c1cccc(O)c1 | 13
50 | C[C@H]1CN2C[C@H](c3ccccc3)N(Cc3ccccc3)C[C@H]2C[C@@]1(C)c1cccc(C(N)=O)c1 | 17
51 | C[C@H]1CN2CCN(c3ccccc3)C[C@H]2C[C@@]1(C)c1cccc(O)c1 | 220
52 | C[C@H]1CN2CCN(C(=O)Cc3ccccc3)C[C@H]2C[C@@]1(C)c1cccc(O)c1 | 17
53 | C[C@H]1CN2CCN(Cc3ccccc3Cl)C[C@H]2C[C@@]1(C)c1cccc(O)c1 | 0.47
54 | Cc1ccccc1CN1CCN2C[C@H](C)[C@](C)(c3cccc(O)c3)C[C@@H]2C1 | 0.98
55 | Cc1ccc(CN2CCN3C[C@H](C)[C@](C)(c4cccc(O)c4)C[C@@H]3C2)cc1 | 14

biological target: T1, Delta-type opioid receptor; test: Displacement of [3H]diprenorphine from human cloned delta opioid receptor expressed in CHO cells; type: cell-based

Row | SMILES | Ki [nM]
56 | C[C@H]1CN2C[C@H](c3ccccc3)N(Cc3ccccc3)C[C@H]2C[C@@]1(C)c1cccc(C(=O)O)c1 | 2500
57 | C[C@H]1CN2CCCN(Cc3ccccc3)C[C@H]2C[C@@]1(C)c1cccc(O)c1 | 2900
58 | C[C@H]1CN2CCN(Cc3ccc(O)cc3)C[C@H]2C[C@@]1(C)c1cccc(O)c1 | 220
59 | C[C@H]1CN2CCN(Cc3ccoc3)C[C@H]2C[C@@]1(C)c1cccc(O)c1 | 740
60 | C[C@H]1CN2CCN(C(=O)CCc3ccccc3)C[C@H]2C[C@@]1(C)c1cccc(O)c1 | 140
61 | C[C@H]1CN2CCN(Cc3ccsc3)C[C@H]2C[C@@]1(C)c1cccc(O)c1 | 340
62 | C[C@H]1CN2CCN(Cc3ccco3)C[C@H]2C[C@@]1(C)c1cccc(O)c1 | 1500
63 | C[C@H]1CN2CCN(Cc3cccc(O)c3)C[C@H]2C[C@@]1(C)c1cccc(O)c1 | 310
64 | C[C@H]1CN2CCN(C(=O)Nc3ccccc3)C[C@H]2C[C@@]1(C)c1cccc(O)c1 | 540
65 | C[C@H]1CN2C[C@@H](Cc3ccccc3)NC[C@H]2C[C@@]1(C)c1cccc(O)c1 | 410
66 | C[C@H]1CN2C[C@@H](c3ccccc3)NC[C@H]2C[C@@]1(C)c1cccc(O)c1 | 660
67 | C[C@H]1CN2CCN(Cc3ccccn3)C[C@H]2C[C@@]1(C)c1cccc(O)c1 | 1100
68 | Cc1cccc(CN2CCN3C[C@H](C)[C@](C)(c4cccc(O)c4)C[C@@H]3C2)c1 | 510
69 | C[C@H]1CN2CCN(S(=O)(=O)c3ccccc3)C[C@H]2C[C@@]1(C)c1cccc(O)c1 | 1700
70 | C[C@H]1CN2CCN(CCCc3ccccc3)C[C@H]2C[C@@]1(C)c1cccc(O)c1 | 960
71 | C[C@H]1CN2CCN(Cc3ccncc3)C[C@H]2C[C@@]1(C)c1cccc(O)c1 | 1300
72 | C[C@H]1CN2CCN(Cc3ccc(Cl)cc3)C[C@H]2C[C@@]1(C)c1cccc(O)c1 | 420
73 | C[C@H]1CN2CCN(Cc3cccc(Cl)c3)C[C@H]2C[C@@]1(C)c1cccc(O)c1 | 360
74 | C[C@H]1CN2CCN(Cc3cccnc3)C[C@H]2C[C@@]1(C)c1cccc(O)c1 | 840
75 | C[C@H]1CN2C[C@H](c3ccccc3)N(Cc3ccccc3)C[C@H]2C[C@@]1(C)c1cccc(C(N)=O)c1 | 1100
76 | C[C@H]1CN2CCN(c3ccccc3)C[C@H]2C[C@@]1(C)c1cccc(O)c1 | 960
77 | C[C@H]1CN2CCN(C(=O)Cc3ccccc3)C[C@H]2C[C@@]1(C)c1cccc(O)c1 | 71
78 | C[C@H]1CN2CCN(Cc3ccccc3Cl)C[C@H]2C[C@@]1(C)c1cccc(O)c1 | 57
79 | Cc1ccccc1CN1CCN2C[C@H](C)[C@](C)(c3cccc(O)c3)C[C@@H]2C1 | 89
80 | Cc1ccc(CN2CCN3C[C@H](C)[C@](C)(c4cccc(O)c4)C[C@@H]3C2)cc1 | 350

biological target: T3, Kappa-type opioid receptor; test: Displacement of [3H]diprenorphine from human cloned kappa opioid receptor expressed in CHO cells; type: cell-based

Row | SMILES | Ki [nM]
81 | C[C@H]1CN2CCCN(Cc3ccccc3)C[C@H]2C[C@@]1(C)c1cccc(O)c1 | 540
82 | C[C@H]1CN2CCN(Cc3ccc(O)cc3)C[C@H]2C[C@@]1(C)c1cccc(O)c1 | 270
83 | C[C@H]1CN2CCN(Cc3ccoc3)C[C@H]2C[C@@]1(C)c1cccc(O)c1 | 120
84 | C[C@H]1CN2CCN(Cc3ccsc3)C[C@H]2C[C@@]1(C)c1cccc(O)c1 | 38
85 | C[C@H]1CN2CCN(Cc3ccco3)C[C@H]2C[C@@]1(C)c1cccc(O)c1 | 430
86 | C[C@H]1CN2CCN(Cc3cccc(O)c3)C[C@H]2C[C@@]1(C)c1cccc(O)c1 | 56
87 | C[C@H]1CN2CCN(C(=O)Nc3ccccc3)C[C@H]2C[C@@]1(C)c1cccc(O)c1 | 420
88 | C[C@H]1CN2C[C@@H](Cc3ccccc3)NC[C@H]2C[C@@]1(C)c1cccc(O)c1 | 130
89 | C[C@H]1CN2C[C@@H](c3ccccc3)NC[C@H]2C[C@@]1(C)c1cccc(O)c1 | 430
90 | C[C@H]1CN2CCN(Cc3ccccn3)C[C@H]2C[C@@]1(C)c1cccc(O)c1 | 390
91 | Cc1cccc(CN2CCN3C[C@H](C)[C@](C)(c4cccc(O)c4)C[C@@H]3C2)c1 | 130
92 | C[C@H]1CN2CCN(CCCc3ccccc3)C[C@H]2C[C@@]1(C)c1cccc(O)c1 | 950
93 | C[C@H]1CN2CCN(Cc3ccc(Cl)cc3)C[C@H]2C[C@@]1(C)c1cccc(O)c1 | 280
94 | C[C@H]1CN2CCN(Cc3cccc(Cl)c3)C[C@H]2C[C@@]1(C)c1cccc(O)c1 | 83
95 | C[C@H]1CN2CCN(Cc3cccnc3)C[C@H]2C[C@@]1(C)c1cccc(O)c1 | 400
96 | C[C@H]1CN2C[C@H](c3ccccc3)N(Cc3ccccc3)C[C@H]2C[C@@]1(C)c1cccc(C(N)=O)c1 | 460
97 | C[C@H]1CN2CCN(c3ccccc3)C[C@H]2C[C@@]1(C)c1cccc(O)c1 | 3700
98 | C[C@H]1CN2CCN(C(=O)Cc3ccccc3)C[C@H]2C[C@@]1(C)c1cccc(O)c1 | 540
99 | C[C@H]1CN2CCN(Cc3ccccc3Cl)C[C@H]2C[C@@]1(C)c1cccc(O)c1 | 16
100 | Cc1ccccc1CN1CCN2C[C@H](C)[C@](C)(c3cccc(O)c3)C[C@@H]2C1 | 30
101 | Cc1ccc(CN2CCN3C[C@H](C)[C@](C)(c4cccc(O)c4)C[C@@H]3C2)cc1 | 300

biological target: T2, Mu-type opioid receptor; test: Inhibition of [3H]diprenorphine binding to human cloned mu opioid receptor expressed in CHO cells at 10 uM; type: cell-based

Row | inhibition [%] | SMILES
102 | 44 | C[C@H]1CN2C[C@H](c3ccccc3)N(Cc3ccccc3)C[C@H]2C[C@@]1(C)c1cccc(C(=O)O)c1

biological target: T3, Kappa-type opioid receptor; test: Inhibition of [3H]diprenorphine binding to human cloned kappa opioid receptor expressed in CHO cells at 10 uM; type: cell-based

Row | SMILES | inhibition [%]
103 | C[C@H]1CN2C[C@H](c3ccccc3)N(Cc3ccccc3)C[C@H]2C[C@@]1(C)c1cccc(C(=O)O)c1 | 9
104 | C[C@H]1CN2CCN(C(=O)CCc3ccccc3)C[C@H]2C[C@@]1(C)c1cccc(O)c1 | 65
105 | C[C@H]1CN2CCN(S(=O)(=O)c3ccccc3)C[C@H]2C[C@@]1(C)c1cccc(O)c1 | 34
106 | C[C@H]1CN2CCN(Cc3ccncc3)C[C@H]2C[C@@]1(C)c1cccc(O)c1 | 67
